Experimental data as given in patent US11725011B2, “Bicyclic urea kinase inhibitors and uses thereof” (The Broad Institute, Inc., priority 2016, dated 2023).

Tests used:
EPHA5 = EPHA5 (Homo sapiens (Human), UniProt P54756); experiment: KINOMEscan; format: binding; conditions: 1 uM
KIT (L576P) = KIT (L576P) (Homo sapiens (Human), UniProt P10721, L576P); experiment: KINOMEscan; format: binding; conditions: 1 uM
TLK1 = TLK1 (Homo sapiens (Human), UniProt Q9UKI8); experiment: KINOMEscan; format: binding; conditions: 1 uM
PKMYT1 = PKMYT1 (Homo sapiens (Human), UniProt Q99640); experiment: KINOMEscan; format: binding; conditions: 1 uM
FES = FES (Homo sapiens (Human), UniProt P07332); experiment: KINOMEscan; format: binding; conditions: 1 uM
FLT3 = FLT3 (Homo sapiens (Human), UniProt P36888); experiment: KINOMEscan; format: binding; conditions: 1 uM
TAK1 = TAK1 (Homo sapiens (Human), UniProt O43318); experiment: KINOMEscan; format: binding; conditions: 1 uM
MINK = MINK (Homo sapiens (Human), UniProt Q8N4C8); experiment: KINOMEscan; format: binding; conditions: 1 uM
DYRK1B = DYRK1B (Homo sapiens (Human), UniProt Q9Y463); experiment: KINOMEscan; format: binding; conditions: 1 uM
[1] = molecular target: RSK3 (Kin.Dom.2-C-terminal) (Homo sapiens (Human), UniProt Q15349); experiment: KINOMEscan; format: binding; conditions: 1 uM
KIT (V559D) = KIT (V559D) (Homo sapiens (Human), UniProt P10721, V559D); experiment: KINOMEscan; format: binding; conditions: 1 uM
KIT (A829P) = KIT (A829P) (Homo sapiens (Human), UniProt P10721, A829P); experiment: KINOMEscan; format: binding; conditions: 1 uM
PCTK1 = PCTK1 (Homo sapiens (Human), UniProt Q00536); experiment: KINOMEscan; format: binding; conditions: 1 uM
CLK1 = CLK1 (Homo sapiens (Human), UniProt P49759); experiment: KINOMEscan; format: binding; conditions: 1 uM
TTK = TTK (Homo sapiens (Human), UniProt P33981); experiment: KINOMEscan; format: binding; conditions: 1 uM
ROCK1 = ROCK1 (Homo sapiens (Human), UniProt Q13464); experiment: KINOMEscan; format: binding; conditions: 1 uM
p38-delta = p38-delta (Homo sapiens (Human), UniProt O15264); experiment: KINOMEscan; format: binding; conditions: 1 uM
CDK4-cyclinD1 = CDK4-cyclinD1 (Homo sapiens (Human), UniProt P11802); experiment: KINOMEscan; format: binding; conditions: 1 uM
αK3A = αK3A (Homo sapiens (Human), UniProt P49840); experiment: KINOMEscan; format: binding; conditions: 1 uM
PIK3C2G = PIK3C2G (Homo sapiens (Human), UniProt O75747); experiment: KINOMEscan; format: binding; conditions: 1 uM
NDR1 = NDR1 (Homo sapiens (Human), UniProt Q15208); experiment: KINOMEscan; format: binding; conditions: 1 uM
GRK1 = GRK1 (Homo sapiens (Human), UniProt Q15835); experiment: KINOMEscan; format: binding; conditions: 1 uM
FGFR3 (G697C) = FGFR3 (G697C) (Homo sapiens (Human), UniProt P22607, G697C); experiment: KINOMEscan; format: binding; conditions: 1 uM
PYK2 = PYK2 (Homo sapiens (Human), UniProt Q14289); experiment: KINOMEscan; format: binding; conditions: 1 uM
YSK1 = YSK1 (Homo sapiens (Human), UniProt O00506); experiment: KINOMEscan; format: binding; conditions: 1 uM
ERK4 = ERK4 (Homo sapiens (Human), UniProt P31152); experiment: KINOMEscan; format: binding; conditions: 1 uM
PIK3CA (E545K) = PIK3CA (E545K) (Homo sapiens (Human), UniProt P42336, E545K); experiment: KINOMEscan; format: binding; conditions: 1 uM
CDC2L2 = CDC2L2 (Homo sapiens (Human), UniProt Q9UQ88); experiment: KINOMEscan; format: binding; conditions: 1 uM
SRPK2 = SRPK2 (Homo sapiens (Human), UniProt P78362); experiment: KINOMEscan; format: binding; conditions: 1 uM
PRKCI = PRKCI (Homo sapiens (Human), UniProt P41743); experiment: KINOMEscan; format: binding; conditions: 1 uM
PKN2 = PKN2 (Homo sapiens (Human), UniProt Q16513); experiment: KINOMEscan; format: binding; conditions: 1 uM
PFPK5 (P. falciparum) = PFPK5 (P. falciparum) (Plasmodium falciparum (isolate 3D7), UniProt P61075); experiment: KINOMEscan; format: binding; conditions: 1 uM
TRPM6 = TRPM6 (Homo sapiens (Human), UniProt Q9BX84); experiment: KINOMEscan; format: binding; conditions: 1 uM
MAPKAPK5 = MAPKAPK5 (Homo sapiens (Human), UniProt Q8IW41); experiment: KINOMEscan; format: binding; conditions: 1 uM
BMX = BMX (Homo sapiens (Human), UniProt P51813); experiment: KINOMEscan; format: binding; conditions: 1 uM
Viability loss (Table 4) = format: cell-based
TAOK1 = TAOK1 (Homo sapiens (Human), UniProt Q7L7X3); experiment: KINOMEscan; format: binding; conditions: 1 uM
ROS1 = ROS1 (Homo sapiens (Human), UniProt P08922); experiment: KINOMEscan; format: binding; conditions: 1 uM
[2] = molecular target: EGFR (L747-T751del, Sins) (Homo sapiens (Human), UniProt P00533, DEL747-751/INS746S); experiment: KINOMEscan; format: binding; conditions: 1 uM
EGFR = EGFR (Homo sapiens (Human), UniProt P00533); experiment: KINOMEscan; format: binding; conditions: 1 uM

TLK1, sequence (Q9UKI8 whole entry): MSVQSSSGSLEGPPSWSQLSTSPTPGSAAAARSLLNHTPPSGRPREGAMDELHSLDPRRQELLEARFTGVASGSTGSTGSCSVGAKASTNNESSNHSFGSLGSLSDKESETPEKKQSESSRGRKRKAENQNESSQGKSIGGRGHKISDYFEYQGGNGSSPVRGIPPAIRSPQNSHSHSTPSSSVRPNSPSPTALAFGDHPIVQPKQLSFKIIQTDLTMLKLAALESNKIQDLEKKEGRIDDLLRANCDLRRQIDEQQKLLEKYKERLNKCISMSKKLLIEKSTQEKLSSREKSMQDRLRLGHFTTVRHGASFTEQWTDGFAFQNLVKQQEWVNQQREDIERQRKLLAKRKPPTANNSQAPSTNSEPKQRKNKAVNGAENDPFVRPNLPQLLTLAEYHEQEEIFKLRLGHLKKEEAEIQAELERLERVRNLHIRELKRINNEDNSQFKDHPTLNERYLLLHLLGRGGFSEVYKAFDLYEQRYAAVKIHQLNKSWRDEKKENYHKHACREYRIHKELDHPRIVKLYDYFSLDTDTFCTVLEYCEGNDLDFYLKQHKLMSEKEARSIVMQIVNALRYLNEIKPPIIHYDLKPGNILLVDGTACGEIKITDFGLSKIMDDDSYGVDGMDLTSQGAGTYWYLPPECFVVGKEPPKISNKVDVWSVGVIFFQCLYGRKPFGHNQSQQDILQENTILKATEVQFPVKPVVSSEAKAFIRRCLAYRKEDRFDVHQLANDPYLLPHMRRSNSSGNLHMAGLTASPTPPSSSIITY
TRPM6, sequence (Q9BX84 whole entry): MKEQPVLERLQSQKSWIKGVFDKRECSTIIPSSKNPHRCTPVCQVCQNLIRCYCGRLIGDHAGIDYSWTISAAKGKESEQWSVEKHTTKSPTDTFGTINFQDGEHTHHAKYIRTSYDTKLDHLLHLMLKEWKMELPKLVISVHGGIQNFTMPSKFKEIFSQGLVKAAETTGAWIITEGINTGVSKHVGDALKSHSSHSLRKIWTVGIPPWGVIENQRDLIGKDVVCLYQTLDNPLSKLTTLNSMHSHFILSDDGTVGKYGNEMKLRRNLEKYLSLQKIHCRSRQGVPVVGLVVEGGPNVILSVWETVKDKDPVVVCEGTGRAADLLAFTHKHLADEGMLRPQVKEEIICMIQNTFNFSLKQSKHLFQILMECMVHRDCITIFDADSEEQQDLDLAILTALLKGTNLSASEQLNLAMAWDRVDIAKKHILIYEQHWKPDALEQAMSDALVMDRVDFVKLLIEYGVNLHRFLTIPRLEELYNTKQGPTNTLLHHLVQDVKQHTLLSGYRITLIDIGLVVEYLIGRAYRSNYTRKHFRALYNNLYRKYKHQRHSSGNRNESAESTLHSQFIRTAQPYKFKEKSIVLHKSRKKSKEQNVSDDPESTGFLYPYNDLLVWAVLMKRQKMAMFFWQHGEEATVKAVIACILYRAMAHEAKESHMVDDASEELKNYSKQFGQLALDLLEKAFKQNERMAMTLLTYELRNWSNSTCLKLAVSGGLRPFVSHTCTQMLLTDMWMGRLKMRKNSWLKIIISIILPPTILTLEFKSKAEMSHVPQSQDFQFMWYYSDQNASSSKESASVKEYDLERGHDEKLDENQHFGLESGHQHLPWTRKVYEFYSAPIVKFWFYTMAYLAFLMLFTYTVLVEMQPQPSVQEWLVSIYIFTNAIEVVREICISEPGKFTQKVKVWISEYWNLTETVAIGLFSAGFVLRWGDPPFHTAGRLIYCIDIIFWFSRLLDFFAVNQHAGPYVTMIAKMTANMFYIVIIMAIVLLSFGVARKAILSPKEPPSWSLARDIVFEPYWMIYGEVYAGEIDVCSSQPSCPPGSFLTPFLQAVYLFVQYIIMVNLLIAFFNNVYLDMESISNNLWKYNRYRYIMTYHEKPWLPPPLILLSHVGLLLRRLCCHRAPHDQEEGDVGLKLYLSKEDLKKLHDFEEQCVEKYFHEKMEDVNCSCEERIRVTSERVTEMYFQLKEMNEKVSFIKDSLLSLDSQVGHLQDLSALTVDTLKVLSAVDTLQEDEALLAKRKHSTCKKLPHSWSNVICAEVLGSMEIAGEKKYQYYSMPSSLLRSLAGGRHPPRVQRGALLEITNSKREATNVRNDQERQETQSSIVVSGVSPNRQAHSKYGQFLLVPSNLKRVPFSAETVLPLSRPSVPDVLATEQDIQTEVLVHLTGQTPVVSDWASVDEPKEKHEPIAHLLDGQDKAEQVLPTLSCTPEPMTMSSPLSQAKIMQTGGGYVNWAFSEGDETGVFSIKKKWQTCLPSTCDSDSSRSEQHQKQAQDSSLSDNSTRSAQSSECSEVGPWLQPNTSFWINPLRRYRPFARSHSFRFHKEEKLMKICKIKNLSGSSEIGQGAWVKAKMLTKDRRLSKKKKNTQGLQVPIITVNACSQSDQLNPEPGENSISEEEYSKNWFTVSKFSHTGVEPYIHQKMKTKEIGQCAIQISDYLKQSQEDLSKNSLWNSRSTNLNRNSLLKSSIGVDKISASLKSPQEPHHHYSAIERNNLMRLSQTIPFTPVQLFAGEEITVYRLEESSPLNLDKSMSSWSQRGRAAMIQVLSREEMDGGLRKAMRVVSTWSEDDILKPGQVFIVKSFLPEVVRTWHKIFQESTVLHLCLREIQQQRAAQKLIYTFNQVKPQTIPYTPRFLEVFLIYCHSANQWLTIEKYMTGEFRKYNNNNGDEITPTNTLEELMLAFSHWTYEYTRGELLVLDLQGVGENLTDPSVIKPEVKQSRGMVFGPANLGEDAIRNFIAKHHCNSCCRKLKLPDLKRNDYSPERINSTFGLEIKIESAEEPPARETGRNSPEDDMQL
KIT (A829P), sequence (P10721 26-976 A829P): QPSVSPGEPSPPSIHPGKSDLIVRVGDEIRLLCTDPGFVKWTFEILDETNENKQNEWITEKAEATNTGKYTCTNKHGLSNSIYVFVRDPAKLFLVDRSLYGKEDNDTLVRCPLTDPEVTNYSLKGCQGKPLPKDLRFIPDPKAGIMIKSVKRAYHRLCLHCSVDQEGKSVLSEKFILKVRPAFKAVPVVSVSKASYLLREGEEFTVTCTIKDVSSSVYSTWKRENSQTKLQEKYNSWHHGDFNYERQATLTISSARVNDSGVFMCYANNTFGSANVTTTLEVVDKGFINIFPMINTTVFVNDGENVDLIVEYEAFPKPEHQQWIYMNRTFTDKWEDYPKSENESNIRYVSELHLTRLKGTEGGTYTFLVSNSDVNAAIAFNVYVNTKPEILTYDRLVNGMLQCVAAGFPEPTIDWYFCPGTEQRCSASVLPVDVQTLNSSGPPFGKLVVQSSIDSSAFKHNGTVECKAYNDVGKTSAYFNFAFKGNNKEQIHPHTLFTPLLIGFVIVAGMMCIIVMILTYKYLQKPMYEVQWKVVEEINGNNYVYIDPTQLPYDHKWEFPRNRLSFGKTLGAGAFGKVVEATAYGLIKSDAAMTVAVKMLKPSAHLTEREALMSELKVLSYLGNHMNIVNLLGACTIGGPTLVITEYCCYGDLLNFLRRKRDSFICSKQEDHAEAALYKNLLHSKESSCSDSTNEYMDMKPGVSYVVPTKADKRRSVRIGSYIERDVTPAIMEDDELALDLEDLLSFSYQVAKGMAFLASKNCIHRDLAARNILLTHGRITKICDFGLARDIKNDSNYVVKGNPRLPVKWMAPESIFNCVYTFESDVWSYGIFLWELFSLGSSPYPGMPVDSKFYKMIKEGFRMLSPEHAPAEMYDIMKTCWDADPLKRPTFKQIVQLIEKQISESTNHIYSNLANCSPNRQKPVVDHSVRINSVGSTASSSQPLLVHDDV
TAK1, sequence (O43318 whole entry): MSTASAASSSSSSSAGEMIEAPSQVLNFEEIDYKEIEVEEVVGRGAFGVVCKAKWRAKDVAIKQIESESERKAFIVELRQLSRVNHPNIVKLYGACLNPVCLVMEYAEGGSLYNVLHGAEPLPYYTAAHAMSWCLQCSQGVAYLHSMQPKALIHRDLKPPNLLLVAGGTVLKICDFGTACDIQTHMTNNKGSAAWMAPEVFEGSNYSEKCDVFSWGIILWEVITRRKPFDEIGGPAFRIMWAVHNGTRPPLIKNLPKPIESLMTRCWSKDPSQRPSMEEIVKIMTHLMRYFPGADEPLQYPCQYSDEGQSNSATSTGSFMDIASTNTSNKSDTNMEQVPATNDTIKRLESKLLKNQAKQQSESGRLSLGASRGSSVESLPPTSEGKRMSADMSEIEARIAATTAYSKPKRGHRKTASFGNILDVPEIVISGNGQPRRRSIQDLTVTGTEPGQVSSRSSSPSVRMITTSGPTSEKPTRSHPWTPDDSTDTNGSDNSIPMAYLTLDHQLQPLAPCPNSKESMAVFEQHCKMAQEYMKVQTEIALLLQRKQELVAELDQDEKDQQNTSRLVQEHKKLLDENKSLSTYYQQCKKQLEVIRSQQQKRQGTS
CDK4-cyclinD1, sequence (P11802 whole entry): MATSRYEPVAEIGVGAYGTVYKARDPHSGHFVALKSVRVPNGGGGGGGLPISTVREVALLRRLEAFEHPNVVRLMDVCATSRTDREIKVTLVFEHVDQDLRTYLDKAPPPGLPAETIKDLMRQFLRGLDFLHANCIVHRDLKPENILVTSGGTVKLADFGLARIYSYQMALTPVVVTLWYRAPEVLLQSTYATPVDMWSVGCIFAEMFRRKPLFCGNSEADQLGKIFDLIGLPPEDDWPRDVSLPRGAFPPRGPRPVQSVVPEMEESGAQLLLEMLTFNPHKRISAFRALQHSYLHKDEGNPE
CDK4-cyclinD1, sequence (P24385 whole entry partner): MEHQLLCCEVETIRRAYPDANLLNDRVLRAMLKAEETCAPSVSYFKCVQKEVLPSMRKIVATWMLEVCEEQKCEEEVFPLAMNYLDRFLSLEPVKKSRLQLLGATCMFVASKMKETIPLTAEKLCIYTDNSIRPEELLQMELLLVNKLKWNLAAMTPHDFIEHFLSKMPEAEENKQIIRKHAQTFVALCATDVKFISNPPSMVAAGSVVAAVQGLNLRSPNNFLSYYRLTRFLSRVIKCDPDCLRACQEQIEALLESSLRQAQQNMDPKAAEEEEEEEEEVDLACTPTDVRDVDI
KIT (L576P), sequence (P10721 26-976 L576P): as the sequence (P10721 26-976 A829P) above, with L551P, P804A counted along it
KIT (V559D), sequence (P10721 26-976 V559D): as the sequence (P10721 26-976 A829P) above, with V534D, P804A counted along it

## COc1ccc(N2C(=O)N(c3c(C)cccc3C)Cc3cnc(Nc4ccc(N5CCN(C)CC5)cc4)nc32)c(OC)c1 [HG-11-136-01]
EPHA5
  KINOMEscan EPHA5: 0.6
KIT (L576P)
  KINOMEscan KIT (L576P): 0
TLK1
  KINOMEscan TLK1: 76
PKMYT1
  KINOMEscan PKMYT1: 42
FES
  KINOMEscan FES: 0
FLT3
  KINOMEscan FLT3: 34
TAK1
  KINOMEscan TAK1: 11
MINK
  KINOMEscan MINK: 2.8
DYRK1B
  KINOMEscan DYRK1B: 60
[1]
  KINOMEscan RSK3 (Kin.Dom.2-C-terminal): 67
KIT (V559D)
  KINOMEscan KIT (V559D): 0
KIT (A829P)
  KINOMEscan KIT (A829P): 3.6
PCTK1
  KINOMEscan PCTK1: 73
CLK1
  KINOMEscan CLK1: 19
TTK
  KINOMEscan TTK: 47
ROCK1
  KINOMEscan ROCK1: 81
p38-delta
  KINOMEscan p38-delta: 100
CDK4-cyclinD1
  KINOMEscan CDK4-cyclinD1: 9
αK3A
  KINOMEscan αK3A: 100
PIK3C2G
  KINOMEscan PIK3C2G: 87
NDR1
  KINOMEscan NDR1: 46
GRK1
  KINOMEscan GRK1: 77
FGFR3 (G697C)
  KINOMEscan FGFR3 (G697C): 1.4
PYK2
  KINOMEscan PYK2: 15
YSK1
  KINOMEscan YSK1: 19
ERK4
  KINOMEscan ERK4: 95
PIK3CA (E545K)
  KINOMEscan PIK3CA (E545K): 98
CDC2L2
  KINOMEscan CDC2L2: 83
SRPK2
  KINOMEscan SRPK2: 93
PRKCI
  KINOMEscan PRKCI: 63
PKN2
  KINOMEscan PKN2: 94
PFPK5 (P. falciparum)
  KINOMEscan PFPK5 (P. falciparum): 96
TRPM6
  KINOMEscan TRPM6: 69
MAPKAPK5
  KINOMEscan MAPKAPK5: 96
BMX
  KINOMEscan BMX: 3
Viability loss (Table 4)
  Viability loss AC40: 97 nM
  Viability loss data mode: decreasing
TAOK1
  KINOMEscan TAOK1: 1
ROS1
  KINOMEscan ROS1: 63
[2]
  KINOMEscan EGFR (L747-T751del, Sins): 0.3
EGFR
  KINOMEscan EGFR: 0.7
